In article PMC8940841, “A metabolically stable PET tracer for imaging synaptic vesicle protein 2A: synthesis and preclinical characterization of [^18F]SDM-16” (European Journal of Nuclear Medicine and Molecular Imaging, 2021):
Where two headings read alike, the source gives them in different places.

How the values were obtained:
[1] = Plasma radiometabolite analysis during PET scans; type: in vivo, rhesus monkeys
[2] = LEV blocking and displacement PET scans, Lassen plot; type: in vivo, rhesus monkeys (Macaca mulatta); details: male, rhesus monkey, intravenous
Source text: (§1) Four monkeys were studied.
(§2) To examine the in vivo binding specificity, SV2A occupancy, and the extent of nonspecific binding in the monkey brain, we performed the Lassen plot analysis using data from the two baseline scans and one blocking scan in the same monkey.

[3] = Free base fraction in plasma by modified Henderson-Hasselbalch equation (Eq. 1); details: Eq. 1, plasma pH 7.4
SV2A [4] = tested on: SV2A
Description: (§3) A total of 10 PET imaging experiments with [^18F]SDM-16 were performed in rhesus monkeys (Macaca mulatta) according to a protocol approved by the Yale University Institutional Animal Care and Use Committee (IACUC). Four monkeys were studied. […] Body temperature was maintained by a water-jacket heating pad. The animal was attached to a physiological monitor, and vital signs (heart rate, blood pressure, respirations, SPO2, EKG, ETCO2, and body temperature) were continuously monitored. A venous line was inserted in one limb for administration of radiotracer, displacement, and blocking drugs. A catheter was placed in the femoral artery in the other limb for blood sampling. Dynamic PET brain scans were performed on a Focus 220 system (Siemens Medical Solutions, Knoxville, TN, USA) with a reconstructed image resolution of approximately 1.5 mm. After a 9-min transmission scan, the radioligand was injected i.v. over 3 min. by an infusion pump. Dynamic PET scans were performed for 3 h (baseline and blocking scans) or 4 h (displacement scan).
(§4) PET images were reconstructed with built-in corrections for attenuation, normalization, scatter, randoms, and deadtime. PET brain images were registered to the animal’s MR image, which was subsequently registered to a brain atlas to define the regions of interest. Dynamic images were reconstructed using a Fourier rebinning and filtered back projection algorithm. A rhesus monkey brain atlas was used for generation of regions of interest (ROIs) and time − activity curves (TACs) for the following ROIs: amygdala, brain stem, caudate nucleus, centrum semiovale (CS), cerebellum, cingulate cortex, frontal cortex, globus pallidus, hippocampus, insula, nucleus accumbens, occipital cortex, pons, putamen, substantia nigra, temporal cortex, and thalamus.
(§5) Volume of distribution (VT, mL·cm^−3) values and the first-order kinetic rate constants of tracer (K1) were derived through 1-tissue (1T) compartment kinetic modeling with the metabolite-corrected arterial plasma input function, which was calculated as the product of the fitted total plasma curve and the parent radiotracer fraction curve. Nondisplaceable volume of distribution (VND) and SV2A occupancy by LEV was calculated using the Lassen plot [32]. Nondisplaceable binding potential (BPND) values were calculated from VT values using CS as reference region, or the VND derived from the blocking study, i.e., BPND = (VT, ROI − VT, CS)/ VT, CS or BPND = (VT/VND) -1.

[5] = Brain PET imaging with 1TC kinetic modeling; details: rhesus monkey, intravenous; for Kp / half-life: both
Description: as §3, §4, §5

SV2A [6] = experiment: Brain PET imaging with 1TC kinetic modeling; details: for VT (baseline): 1TC
Description: as §3, §4, §5

SV2A [7] = target: SV2A (Macaca mulatta, UniProt H9EQH8); experiment: LEV blocking and displacement PET scans, Lassen plot; type: in vivo, rhesus monkeys (Macaca mulatta); design: from tissue; host or cells: brain of living rhesus monkeys (in vivo PET); details: for VT (blocking): LEV 30 mg/kg i.v.
SV2A (Macaca mulatta, UniProt H9EQH8), sequence (H9EQH8 1-742): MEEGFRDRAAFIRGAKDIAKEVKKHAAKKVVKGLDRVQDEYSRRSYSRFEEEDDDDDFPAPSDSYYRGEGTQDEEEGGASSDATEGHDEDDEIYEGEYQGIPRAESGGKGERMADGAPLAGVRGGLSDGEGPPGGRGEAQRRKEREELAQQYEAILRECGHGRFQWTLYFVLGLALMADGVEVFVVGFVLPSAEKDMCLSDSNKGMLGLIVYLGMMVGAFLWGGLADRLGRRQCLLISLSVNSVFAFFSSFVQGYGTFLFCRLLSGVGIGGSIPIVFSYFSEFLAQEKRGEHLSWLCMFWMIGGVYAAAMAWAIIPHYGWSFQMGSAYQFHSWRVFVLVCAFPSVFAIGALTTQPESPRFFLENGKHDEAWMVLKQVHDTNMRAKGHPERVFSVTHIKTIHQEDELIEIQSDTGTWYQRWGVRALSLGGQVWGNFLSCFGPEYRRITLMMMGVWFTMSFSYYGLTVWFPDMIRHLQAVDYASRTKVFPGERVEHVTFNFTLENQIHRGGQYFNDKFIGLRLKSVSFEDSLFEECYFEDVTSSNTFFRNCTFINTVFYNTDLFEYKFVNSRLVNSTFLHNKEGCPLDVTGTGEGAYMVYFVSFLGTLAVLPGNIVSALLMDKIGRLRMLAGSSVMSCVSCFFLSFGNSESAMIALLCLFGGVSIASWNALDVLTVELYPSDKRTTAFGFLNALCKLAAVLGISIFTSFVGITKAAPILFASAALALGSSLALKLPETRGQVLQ
Source text: as §1, §2

Cc1nccn1CN1C[C@@H](c2cc(F)cc([18F])c2)CC1=O [[^18F]SDM-16, (R)-4-(3-fluoro-5-(fluoro-^18F)phenyl)-1-((2-methyl-1H-imidazol-1-yl)methyl)pyrrolidin-2-one]
parent fraction in plasma ([1]; 30 min p.i.): 89 ± 5% | parent fraction in plasma ([1]; 120 min p.i.): 80 ± 7% | plasma to whole-blood ratio ([1]; over 180-min acquisition): 0.93 ± 0.13 | Kp ([2]; brain (caudate), Caudate, LEV 30 mg/kg i.v., read-out: VT (blocking)): 7.7 | Kp ([2]; brain (putamen), Putamen, LEV 30 mg/kg i.v., read-out: VT (blocking)): 8.8 | Kp ([2]; brain (thalamus), Thalamus, LEV 30 mg/kg i.v., read-out: VT (blocking)): 8.2 | Kp ([2]; brain, Lassen plot, read-out: VND): 2.54 | fraction present in plasma as free base [3]: 30% | regional BPND range, CS as reference region (SV2A [4]): 0.69-3.90 | regional BPND range, VND method (SV2A [4]): 2.9-15.1 | BPND, VND method (SV2A [4]; Amygdala): 2.92 ± 0.25 | BPND, VT(CS) method (SV2A [4]; Amygdala): 0.69 ± 0.23 | BPND, VND method (SV2A [4]; Anterior cingulate): 15.13 ± 4.21 | BPND, VT(CS) method (SV2A [4]; Anterior cingulate): 3.90 ± 1.38 | BPND, VND method (SV2A [4]; Brainstem): 4.93 ± 0.15 | BPND, VT(CS) method (SV2A [4]; Brainstem): 1.14 ± 0.24 | BPND, VND method (SV2A [4]; Caudate): 8.76 ± 0.68 | BPND, VT(CS) method (SV2A [4]; Caudate): 2.27 ± 0.68 | BPND, VND method (SV2A [4]; Cerebellum): 9.47 ± 0.65 | BPND, VT(CS) method (SV2A [4]; Cerebellum): 2.28 ± 0.53 | BPND, VND method (SV2A [4]; Cingulate cortex): 14.97 ± 0.28 | BPND, VT(CS) method (SV2A [4]; Cingulate cortex): 3.77 ± 1.28 | BPND, VND method (SV2A [4]; Frontal cortex): 12.72 ± 0.76 | BPND, VT(CS) method (SV2A [4]; Frontal cortex): 3.24 ± 1.07 | BPND, VND method (SV2A [4]; Globus pallidus): 6.60 ± 0.33 | BPND, VT(CS) method (SV2A [4]; Globus pallidus): 1.61 ± 0.42 | BPND ratio [^18F]SDM-16/[^11C]UCB-J (SV2A [4]; Guo plot): 1.41 | BPND ratio [^18F]SDM-16/[^18F]SynVesT-1 (SV2A [4]; Guo plot): 0.99 | BPND, VND method (SV2A [4]; Hippocampus): 6.55 ± 0.97 | BPND, VT(CS) method (SV2A [4]; Hippocampus): 1.72 ± 0.44 | BPND, VND method (SV2A [4]; Insular cortex): 13.77 ± 1.93 | BPND, VT(CS) method (SV2A [4]; Insular cortex): 3.54 ± 1.31 | BPND, VND method (SV2A [4]; Nucleus accumbens): 14.51 ± 0.23 | BPND, VT(CS) method (SV2A [4]; Nucleus accumbens): 3.48 ± 1.35 | BPND, VND method (SV2A [4]; Occipital cortex): 12.62 ± 1.09 | BPND, VT(CS) method (SV2A [4]; Occipital cortex): 3.49 ± 0.90 | BPND, VND method (SV2A [4]; Putamen): 11.50 ± 0.8 | BPND, VT(CS) method (SV2A [4]; Putamen): 3.00 ± 1.00 | BPND, VND method (SV2A [4]; Temporal cortex): 12.06 ± 0.54 | BPND, VT(CS) method (SV2A [4]; Temporal cortex): 3.15 ± 0.52 | BPND, VND method (SV2A [4]; Thalamus): 9.46 ± 0.19 | BPND, VT(CS) method (SV2A [4]; Thalamus): 2.29 ± 0.72 | BPND with CS VT lower than BPND with VND (SV2A [4]; average): 67% | Kp ([5]; brain (caudate)): 21.6 ± 4.9 | Kp ([5]; brain (centrum semiovale)): 6.6 | half-life ([5]; brain (centrum semiovale)): 1.38 ± 0.3 h | Kp ([5]; brain (cerebellum)): 21.5 ± 3 | Kp ([5]; brain (cingulate cortex)): 31.3 | half-life ([5]; brain (insular cortex)): 2.53 ± 0.817 h | Kp ([5]; brain (putamen)): 26 ± 6.8 | Kp ([5]; brain (thalamus)): 21.6 ± 4.9 | fraction unbound ([5]; brain tissue): 0.27 | K1 (SV2A [6]; Amygdala): 0.10 ± 0.02 mL/cm^3 per min | VT (baseline) (SV2A [6]; Amygdala): 11.2 ± 2.0 mL/cm^3 | K1 (SV2A [6]; Anterior cingulate): 0.15 ± 0.01 mL/cm^3 per min | K1 (SV2A [6]; Brainstem): 0.14 ± 0.02 mL/cm^3 per min | VT (baseline) (SV2A [6]; Brainstem): 14.1 ± 1.7 mL/cm^3 | K1 (SV2A [6]; Caudate): 0.13 ± 0.02 mL/cm^3 per min | VT (baseline) (SV2A [6]; Centrum semiovale): 6.6 ± 0.9 mL/cm^3 | K1 (SV2A [6]; Cerebellum): 0.18 ± 0.02 mL/cm^3 per min | K1 (SV2A [6]; Cingulate cortex): 0.15 ± 0.00 mL/cm^3 per min | VT (baseline) (SV2A [6]; Cingulate cortex): 31.3 ± 7.8 mL/cm^3 | K1 (SV2A [6]; Frontal cortex): 0.14 ± 0.00 mL/cm^3 per min | VT (baseline) (SV2A [6]; Frontal cortex): 27.9 ± 6.8 mL/cm^3 | K1 (SV2A [6]; Globus pallidus): 0.11 ± 0.01 mL/cm^3 per min | VT (baseline) (SV2A [6]; Globus pallidus): 17.2 ± 3.5 mL/cm^3 | K1 (SV2A [6]; Hippocampus): 0.12 ± 0.02 mL/cm^3 per min | VT (baseline) (SV2A [6]; Hippocampus): 17.9 ± 2.5 mL/cm^3 | K1 (SV2A [6]; Insular cortex): 0.14 ± 0.01 mL/cm^3 per min | VT (baseline) (SV2A [6]; Insular cortex): 29.8 ± 8.0 mL/cm^3 | K1 (SV2A [6]; Mean ± SD over brain regions): 0.14 ± 0.03 mL/cm^3 per min | K1 (SV2A [6]; Nucleus accumbens): 0.13 ± 0.01 mL/cm^3 per min | VT (baseline) (SV2A [6]; Nucleus accumbens): 29.4 ± 8.5 mL/cm^3 | K1 (SV2A [6]; Occipital cortex): 0.18 ± 0.02 mL/cm^3 per min | VT (baseline) (SV2A [6]; Occipital cortex): 29.5 ± 5.5 mL/cm^3 | K1 (SV2A [6]; Putamen): 0.16 ± 0.02 mL/cm^3 per min | K1 (SV2A [6]; Temporal cortex): 0.14 ± 0.01 mL/cm^3 per min | VT (baseline) (SV2A [6]; Temporal cortex): 27.3 ± 5.7 mL/cm^3 | K1 (SV2A [6]; Thalamus): 0.14 ± 0.02 mL/cm^3 per min | SUV (brain tracer uptake) (SV2A [6]; baseline scan, end of scan, frontal cortex and putamen): about 10 | averaged VT as percent of that of [^11C]UCB-A (SV2A [6]; rhesus monkey, in vivo): 59% | regional K1 lower than [^11C]UCB-J (SV2A [6]; rhesus monkey, in vivo): 82% | regional K1 lower than [^18F]SynVesT-1 (SV2A [6]; rhesus monkey, in vivo): 86% | in vivo defluorination (radioactivity in skull) (SV2A [6]; up to 4-h p.i.): lack of in vivo defluorination | VT (blocking) (SV2A [7]; Amygdala): 4.5 mL/cm^3 | VT (blocking) (SV2A [7]; Brainstem): 4.5 mL/cm^3 | VT (blocking) (SV2A [7]; Centrum semiovale): 3.4 mL/cm^3 | VT (blocking) (SV2A [7]; Cerebellum): 6.6 mL/cm^3 | VT (blocking) (SV2A [7]; Cingulate cortex): 10.4 mL/cm^3 | VT (blocking) (SV2A [7]; Frontal cortex): 9.5 mL/cm^3 | VT (blocking) (SV2A [7]; Globus pallidus): 6.9 mL/cm^3 | VT (blocking) (SV2A [7]; Hippocampus): 5.9 mL/cm^3 | VT (blocking) (SV2A [7]; Insular cortex): 10.3 mL/cm^3 | reduction of tracer uptake in LEV displacement (SV2A [7]; LEV 30 mg/kg i.v. at 120 min p.i., averaged from 5 brain regions, SUV at 4 h p.i. vs 180 min baseline): 58 ± 8% | VT (blocking) (SV2A [7]; Nucleus accumbens): 10.5 mL/cm^3 | VT (blocking) (SV2A [7]; Occipital cortex): 8.3 mL/cm^3 | VT (blocking) (SV2A [7]; Temporal cortex): 8.6 mL/cm^3 | BPND in the LEV blocking scan (SV2A [7]; cingulate cortex and nucleus accumbens, 79% SV2A occupied by LEV): up to 2.11 | reduction of tracer uptake in gray matter by pre-blocking (SV2A [7]; preinjected LEV 30 mg/kg i.v., normalized terminal SUV): 57 ± 10%
